Assays:
[1] = Infarct volume by MRI after cerebral ischemia (MCA/CCA ligation); type: in vivo, rat; settings: for infarct volume assessed by MRI: seven days after cerebral ischemia; for Mean (infarct volume): given 6 hours after ischemia onset, n=8
Protocol: (§1) Adult male Sprague-Dawley rats (weight 200 g) were used in this study. All surgical procedures were performed using sterile/aseptic techniques in accordance with Institutional guidelines. Rats were anesthetized with chloral hydrate (0.4 g/kg IP) and subjected to cerebral ischemia. Ligation of the right middle cerebral artery (MCA) and bilateral common carotids arteries (CCAs) was performed by methods described previously (Shyu et al. 2005). The CCAs were clamped with non-traumatic arterial clips. The right MCA was ligated with a 10-0 nylone suture. After 90 min of ischemia, the suture on the MCA and the arterial clips on the CCAs were removed to allow reperfusion. Core body temperature was monitored with a thermistor probe (Hewlett-Packard™ Model 21090A probe, Hewlett-Packard Company™, Andover, Mass.), and maintained at 37° C. with a heating pad during anesthesia. After recovery from anesthesia, rat body temperature was maintained at 37° C. with a heat lamp. […]
MRI was performed on rats under anesthesia in an imaging system (R4, GE™) at 3.0 T. Brains were scanned in 6 to 8 coronal image slices, each 2 mm thick without any gaps. T2-weighted imaging (T2WI) pulse sequences were obtained with the use of a spin-echo technique (repetition time, 4000 ms; echo time, 105 ms) and were captured sequentially for each animal at day 7 after cerebral ischemia. To measure the infarction area in the right cortex, we subtracted the noninfarcted area in the right cortex from the total cortical area of the left hemisphere (Shyu et al. 2004). The area of infarct was drawn manually from slice to slice, and the volume was then calculated by internal volume analysis software (Voxtool™, General Electric™).

[2] = Locomotor activity after cerebral ischemia; type: in vivo, rat; settings: vs other groups
Protocol: as §1, with “anesthesia.” for “anesthesia. After recovery from anesthesia, rat body temperature was maintained at 37° C. with a heat lamp.”
Behavioral assessments were measured on day 28 after stroke. […] The baseline-test scores were recorded in order to normalize those taken after cerebral ischemia. The elevated body swing test (EBST) was used to assess body asymmetry after MCA ligation and evaluated quantitatively as previously described (Shyu et al. 2004). […] The frequency of initial head swing contra-lateral to the ischemic side was counted in twenty continuous tests and was normalized, as follows: % recovery=[1−(lateral swings in twenty tests−10)/10×100%. […]

[3] = test system: transplanted iPS-NPCs; assay: Survival of iPS-NPCs transplanted intracerebrally after focal cerebral ischemia in the rat (TUNEL); type: in vivo
Excerpt: iPS-MEF-Ng-20D-17 from Kyoto University, and Cell Bank of RIKEN BioResource Center of Japan (Okita K. et al. Nature (2007) 448(7151):313-17) was induced into iPS-NPCs using a multistage differentiation protocol with some modifications (Kumagai G. et al. PLoS ONE (2009) 4(11):e7706). In brief, the human iPS cells expanding on irradiated MEF feeder cells were passaged, and then transferred to nonadherent culture dishes where they readily formed spheroid embryoid bodies (EBs). Clusters of neuroepithelial-like cells could be isolated and propagated from EBs in the medium of DMEM-F12, N2 supplement (1%; Invitrogen), and 20 ng/mL FGF-2 (R&D Systems™, Germany).
Prior to transplantation, the iPS-NPSs were labeled using 1 μg/mL bis-benzimide (Hoechst™ 33342; Sigma™) for 1 hours at 37° C. as previously described (Shyu W C. et al. J Clin Invest (2008) 118(1):133-148). Labeled cells were then collected and washed in PBS three times. iPS-NPCs were counted using a cytometer to ensure an adequate cell number for transplantation. One week after brain ischemia, adult male Sprague-Dawley rats (weight >300 g) were anesthetized with chloral hydrate (0.4 g/kg, ip) and injected stereotaxically with approximately 1×10^6 cells in a 3-5 μL PBS suspension through a 26-gauge Hamilton syringe into 3 cortical areas adjacent to the right MCA, 3.0 to 5.0 mm below the dura. […]

KEIVSRNKRRYQED-YGRKKRRQRRR (KEIVSRNKRRYQEDYGRKKRRQRRR; PTEN K13 interference peptide conjugated to TAT protein transduction domain) [Peptide-K13]
decrease in infarct volume as compared to the control ([1]; 1.0 mg/kg intravenous): greater than 50% | decrease in infarct volume as compared to the control ([1]; 10 mg/kg intravenous): greater than 50% | infarct volume assessed by MRI ([1]; i.v. 8.4 mg/kg given 2 hours after ischemia onset): significantly reduced | infarct volume assessed by MRI ([1]; i.v. 8.4 mg/kg given 6 hours after ischemia onset): significantly reduced | Mean (infarct volume) ([1]; intravenous 0.1 mg/kg): 160.900 | Mean (infarct volume) ([1]; intravenous 1.0 mg/kg): 72.850 | Mean (infarct volume) ([1]; intravenous 10 mg/kg): 63.700 | locomotor activities (vertical activity, vertical time, number of vertical movements) ([2]; given 2 hours after ischemia): significantly better | locomotor activities (vertical activity, vertical time, number of vertical movements) ([2]; given 6 hours after ischemia): significantly better | TUNEL positive transplanted iPS-NPCs ([3]; 7 days after transplantation, vs saline-treated rats, n=6): significantly fewer | survival rate of transplanted iPS-NPCs ([3]; intravenous 8.4 mg/kg once a day for 7 days following transplantation, ischemic rat): significantly increased

From patent US9127079B2, “Inhibitors of phosphatase and tensin homolog (PTEN) conjugates” (THE UNIVERSITY OF BRITISH COLUMBIA, priority 2009, dated 2015)
